Test results taken from PubChem BioAssay (NCI).
Several values for one entry are separate records, joined by “and”; a condition that tells them apart may be missing. Equal entries are not always repeated.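 Exposure lasted 48 hours, with cells grown in 96-well plates and compounds tested at five concentrations. GI50: concentration for 50% inhibition of growth. TGI: total growth inhibition.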

How the values were obtained:
Experiment in all cases: growth of human tumour cells (NCI), 48 h
SF-539 CNS = system: SF-539 CNS
MALME-3M melanoma = system: MALME-3M melanoma
BT-549 breast = system: BT-549 breast
MCF7 breast = system: MCF7 breast
A498 renal = system: A498 renal
SNB-19 CNS = system: SNB-19 CNS
T-47D breast = system: T-47D breast
NCI-H460 lung = system: NCI-H460 lung
NCI-H522 lung = system: NCI-H522 lung
UACC-257 melanoma = system: UACC-257 melanoma

SMILES | GI50 (SF-539 CNS) [µM] | TGI (SF-539 CNS) | GI50 (MALME-3M melanoma) [µM] | TGI (MALME-3M melanoma) | GI50 (BT-549 breast) [µM] | TGI (BT-549 breast) | GI50 (MCF7 breast) [µM] | TGI (MCF7 breast) [µM] | GI50 (A498 renal) [µM] | TGI (A498 renal) | GI50 (SNB-19 CNS) [µM] | TGI (SNB-19 CNS) | GI50 (T-47D breast) [µM] | TGI (T-47D breast) | GI50 (NCI-H460 lung) [µM] | TGI (NCI-H460 lung) [µM] | GI50 (NCI-H522 lung) [µM] | TGI (NCI-H522 lung) | GI50 (UACC-257 melanoma) [µM] | TGI (UACC-257 melanoma)
CC1CC(C)CC(C)C(O)/C(C#N)=C/C=C/CC(C2CCCC2C(=O)O)OC(=O)CC(O)C(C)C1 (stereo unspecified) | 0.0051 | 0.0213 µM and 0.0146 µM | 0.115 | 0.312 µM and 0.106 µM | 0.0501 | 0.636 µM and 0.321 µM | 0.00614 | 0.0436 | 0.0152 | 0.0482 µM and 0.0186 µM | 0.0232 | 0.109 µM and 0.0359 µM | 0.00595 | 0.049 µM and < 0.0166 µM | 0.0518 | 0.371 | 0.00266 | 0.0137 µM and < 0.0119 µM | 0.0359 | 0.17 µM and 0.0491 µM
CO/N=C(\COc1ccc2c(c1)[nH]c1ccccc12)c1ccc(OC)cc1 | 13.8 | > 100 µM | 9.71 | 74.6 µM | > 100 | > 100 µM | 49.8 | > 100 | 19.2 | 46 µM | 24.4 | > 100 µM | > 100 | > 100 µM | 21.8 | > 100 | 49.1 | > 100 µM | 11.4 | 47.1 µM
CC1=C2C(=C[C@@](C)(CO)[C@@H]2OC(=O)N(C)CCN(C)C(=O)OC(C)(C)C)C(=O)[C@](C)(O)C12CC2 | 7.92 | 21.2 µM |  |  | 6.61 | 20.6 µM | 3.35 | > 50 | 8.8 | 20.1 µM | 10.9 | > 50 µM | 5.05 | 35.2 µM | 1.45 | 5.42 | 6.27 | 25.2 µM | 10.1 | 26.3 µM
CCCN1C(=O)NC(=O)C(CC)(N2C(=O)c3c(F)c(F)c(F)c(F)c3C2=O)C1=O (stereo unspecified) | 1.92 | 4.14 µM | 2.06 | 5.31 µM | 2.19 | 5.29 µM | 0.987 | 4.06 | 3.93 | 11.6 µM | 2.44 | 6.53 µM | 2.01 | 4.8 µM | 2.24 | 5.71 | 1.32 | 3.34 µM | 2.99 | 8.63 µM
CN1CCN(C(=S)N(C)C(=O)c2ccco2)CC1 |  |  |  | > 100 µM |  | > 100 µM |  | > 100 |  |  |  | > 100 µM |  | > 100 µM |  | > 100 |  | > 100 µM |  | > 100 µM
c1ccc(NN(Cc2cnccn2)c2ccccc2)cc1 |  | > 100 µM |  | > 100 µM |  | > 100 µM |  | > 100 |  | > 100 µM |  | > 100 µM |  | > 100 µM |  | > 100 |  | > 100 µM |  | > 100 µM
C=C1CCC2C3(C)COC(C)(C)OC3CCC2(C)C1C/C=C1/C(=O)OCC1OC(C)=O (stereo unspecified) | 1.72 | 3.3 µM | 3.11 | 10.1 µM | 2.33 | 6.79 µM | 1.76 | 7.99 | 16.6 | 31.5 µM | 15.6 | 29 µM | 2.96 | 11.5 µM | 5.24 | 17.7 | 0.476 | 2 µM | 2.02 | 5.62 µM
